Assay results reported in ChEMBL document CHEMBL4616706 (ACS Med Chem Lett, 2020).
≈ marks a conversion by molar mass, not a printed value.

Legend:
Gamma-secretase [1] = assay: Modulation of gamma secretase in human H4 cells overexpressing human APP695 harboring K595N/M596L Swedish double mutant assessed as reduction in total amyloid beta (1 to 42 residues) production measured after 24 hrs by AlphaLISA assay; assay type: cell-based
[2] = Clearance in human hepatocytes assessed per million cells; assay type: ADME, cell-based, Hepatocyte; settings: read-out: CLH
[3] = Solubility of compound by LYSA assay; assay type: physicochemical
hERG (KCNH2) = hERG (KCNH2) (Homo sapiens, UniProt Q12809); assay: (§1) Inhibition of human ERG; settings: human
[4] = target: Voltage-gated inwardly rectifying potassium channel KCNH2 (Homo sapiens, UniProt Q12809); assay: as §1
P-gp (ABCB1) = P-gp (ABCB1) (Homo sapiens, UniProt P08183); assay: Substrate activity at human P-gp assessed as efflux ratio; assay type: ADME; settings: not told
[5] = Clearance in mouse hepatocytes assessed per million cells; assay type: ADME, cell-based, Hepatocyte; settings: read-out: CLH
[6] = Modulation of mouse gamma secretase in N2A cells assessed as reduction in total amyloid beta (1 to 42 residues) production; assay type: cell-based
Mus musculus = assay: In vivo modulation of gamma secretase in APP Swedish double transgenic mouse assessed as reduction in free amyloid beta (1 to 42 residues) production measured after 4 hrs by AlphaLISA assay; assay type: functional, organism-based
Gamma-secretase [7] = assay: Modulation of human gamma secretase expressed in HEK293 cells assessed as reduction in free amyloid beta (1 to 42 residues) production; assay type: cell-based
[8] = Clearance in C57BL/6J mouse at 1 mg/kg, iv administered as single dose; assay type: ADME, organism-based; settings: in vivo
[9] = Glutathione reactivity of compound; assay type: physicochemical
[10] = Unbound fraction in mouse plasma; assay type: ADME, cell-free
[11] = Distribution coefficient, logD of compound; assay type: physicochemical; settings: octanol/water
Gamma-secretase [12] = assay: Modulation of human gamma secretase expressed in HEK293 cells assessed as reduction in total amyloid beta (1 to 42 residues) production; assay type: cell-based
[13] = Modulation of mouse gamma secretase in N2A cells assessed as reduction in free amyloid beta (1 to 42 residues) production; assay type: cell-based
[14] = Terminal half life in C57BL/6J mouse at 1 mg/kg, iv administered as single dose; assay type: ADME, organism-based; settings: in vivo, read-out: beta t1/2 (converted)
Gamma-secretase [15] = assay: Modulation of gamma secretase in human H4 cells overexpressing human APP695 harboring K595N/M596L Swedish double mutant assessed as reduction in free amyloid beta (1 to 42 residues) production measured after 24 hrs by AlphaLISA assay; assay type: cell-based
[16] = Oral bioavailability in C57BL/6J mouse at 3 mg/kg administered as single dose; assay type: ADME, organism-based; settings: in vivo
[17] = Unbound fraction in rat plasma; assay type: ADME, cell-free
[18] = Unbound fraction in human plasma; assay type: ADME, cell-free
[19] = Genotoxicity in Salmonella typhimurium by Ames test; assay type: toxicity; settings: salmonella enterica subsp. enterica serovar typhimurium
[20] = Clearance in rat hepatocytes assessed per million cells; assay type: ADME, cell-based, Hepatocyte; settings: read-out: CLH
P-gp = assay: Substrate activity at mouse P-gp assessed as efflux ratio; assay type: ADME; settings: not told
[21] = Volume of distribution at steady state in C57BL/6J mouse at 1 mg/kg, iv administered as single dose; assay type: ADME, organism-based; settings: in vivo, read-out: Vdss
[22] = Volume of distribution at steady state in Wistar rat at 1 mg/kg, iv administered as single dose; assay type: ADME, organism-based; settings: in vivo, read-out: Vdss
[23] = Clearance in Wistar rat at 1 mg/kg, iv administered as single dose; assay type: ADME, organism-based; settings: in vivo
[24] = Oral bioavailability in Wistar rat at 3 mg/kg administered as single dose; assay type: ADME, organism-based; settings: in vivo
[25] = Terminal half life in Wistar rat at 1 mg/kg, iv administered as single dose; assay type: ADME, organism-based; settings: in vivo, read-out: beta t1/2 (converted)

P-gp (ABCB1), sequence (P08183 whole entry): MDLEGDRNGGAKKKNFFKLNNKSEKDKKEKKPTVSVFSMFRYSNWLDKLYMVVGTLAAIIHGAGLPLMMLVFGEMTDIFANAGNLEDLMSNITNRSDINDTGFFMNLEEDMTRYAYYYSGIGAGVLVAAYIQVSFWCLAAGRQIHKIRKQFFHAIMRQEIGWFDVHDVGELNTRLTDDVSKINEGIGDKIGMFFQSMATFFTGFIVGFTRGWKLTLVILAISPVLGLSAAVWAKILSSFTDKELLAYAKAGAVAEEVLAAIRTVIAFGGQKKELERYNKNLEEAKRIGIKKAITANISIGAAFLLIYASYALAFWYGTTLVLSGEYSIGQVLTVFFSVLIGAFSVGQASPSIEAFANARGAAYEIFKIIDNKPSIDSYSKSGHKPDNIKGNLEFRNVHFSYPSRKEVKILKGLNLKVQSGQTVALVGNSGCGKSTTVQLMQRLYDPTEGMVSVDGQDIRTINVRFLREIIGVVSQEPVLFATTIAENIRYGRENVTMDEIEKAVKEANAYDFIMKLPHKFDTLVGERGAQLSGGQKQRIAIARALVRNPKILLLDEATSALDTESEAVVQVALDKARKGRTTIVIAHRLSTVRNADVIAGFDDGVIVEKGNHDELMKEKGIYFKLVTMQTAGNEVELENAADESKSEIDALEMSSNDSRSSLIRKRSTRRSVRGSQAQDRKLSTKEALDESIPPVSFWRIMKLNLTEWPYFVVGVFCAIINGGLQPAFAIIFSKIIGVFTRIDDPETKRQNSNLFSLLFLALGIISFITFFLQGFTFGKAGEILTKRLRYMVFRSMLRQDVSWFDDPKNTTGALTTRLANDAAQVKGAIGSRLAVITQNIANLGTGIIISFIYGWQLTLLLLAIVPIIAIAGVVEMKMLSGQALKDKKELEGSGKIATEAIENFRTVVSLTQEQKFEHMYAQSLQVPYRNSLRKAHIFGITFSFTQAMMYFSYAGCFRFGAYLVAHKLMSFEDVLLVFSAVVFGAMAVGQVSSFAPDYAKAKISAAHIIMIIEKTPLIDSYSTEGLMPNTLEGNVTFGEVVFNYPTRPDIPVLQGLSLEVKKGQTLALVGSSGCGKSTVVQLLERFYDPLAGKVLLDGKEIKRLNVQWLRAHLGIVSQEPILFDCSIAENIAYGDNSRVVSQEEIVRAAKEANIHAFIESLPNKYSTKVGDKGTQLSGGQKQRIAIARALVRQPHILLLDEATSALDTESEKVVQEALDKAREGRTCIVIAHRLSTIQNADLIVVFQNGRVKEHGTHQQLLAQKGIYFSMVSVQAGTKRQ
Voltage-gated inwardly rectifying potassium channel KCNH2, sequence (Q12809 whole entry): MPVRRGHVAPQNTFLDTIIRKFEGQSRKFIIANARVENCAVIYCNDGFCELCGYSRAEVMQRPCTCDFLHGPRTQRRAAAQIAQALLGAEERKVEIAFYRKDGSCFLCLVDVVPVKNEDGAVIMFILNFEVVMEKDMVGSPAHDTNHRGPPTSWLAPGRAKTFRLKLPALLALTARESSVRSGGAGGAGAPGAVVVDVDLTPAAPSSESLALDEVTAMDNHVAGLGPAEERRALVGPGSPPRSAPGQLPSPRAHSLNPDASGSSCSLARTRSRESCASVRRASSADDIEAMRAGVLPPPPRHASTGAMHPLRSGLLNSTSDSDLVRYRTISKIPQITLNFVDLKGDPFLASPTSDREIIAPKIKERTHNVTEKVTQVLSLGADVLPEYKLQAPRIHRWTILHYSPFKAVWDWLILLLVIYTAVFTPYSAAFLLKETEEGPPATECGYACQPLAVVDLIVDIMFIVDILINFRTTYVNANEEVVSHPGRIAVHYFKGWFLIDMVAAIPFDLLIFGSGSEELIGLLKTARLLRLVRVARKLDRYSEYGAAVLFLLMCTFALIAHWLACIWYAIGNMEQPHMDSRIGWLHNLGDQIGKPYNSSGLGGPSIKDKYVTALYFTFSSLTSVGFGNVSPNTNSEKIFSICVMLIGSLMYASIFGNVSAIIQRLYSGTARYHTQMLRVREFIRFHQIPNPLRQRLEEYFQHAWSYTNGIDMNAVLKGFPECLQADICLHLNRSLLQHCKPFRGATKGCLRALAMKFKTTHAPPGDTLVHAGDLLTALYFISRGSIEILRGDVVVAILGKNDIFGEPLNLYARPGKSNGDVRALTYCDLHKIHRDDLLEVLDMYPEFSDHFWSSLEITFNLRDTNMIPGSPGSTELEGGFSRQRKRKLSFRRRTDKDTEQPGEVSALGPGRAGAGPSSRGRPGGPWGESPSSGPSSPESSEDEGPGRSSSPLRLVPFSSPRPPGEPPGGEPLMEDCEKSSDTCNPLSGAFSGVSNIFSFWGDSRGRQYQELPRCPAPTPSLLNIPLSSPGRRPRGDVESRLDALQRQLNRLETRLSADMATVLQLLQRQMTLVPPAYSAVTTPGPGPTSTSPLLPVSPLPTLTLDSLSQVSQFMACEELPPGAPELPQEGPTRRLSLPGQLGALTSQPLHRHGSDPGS
hERG (KCNH2), sequence (Q12809 whole entry): as above

## Cc1cc(N2C[C@H]3CC[C@@H](C2)[C@@H]3Nc2nc3n(n2)CCCN3c2ccc(C(F)(F)F)cc2)ncn1
Gamma-secretase [1]
  IC50: 11 nM

## Cc1noc(N2C[C@H]3CC[C@@H](C2)[C@@H]3Nc2nc3n(n2)CCCN3c2ccc(F)c(F)c2)n1
Gamma-secretase [1]
  IC50: 32 nM
[2]
  hepatocyte CLint: 1.5 µL/min/1e6 cells
[3]
  solubility: 158 µg/mL (≈ 357 µM)

## Fc1ccc(N2CCCn3nc(N[C@@H]4[C@@H]5CC[C@H]4CN(c4ccnc(C(F)(F)F)c4)C5)nc32)cc1F
Gamma-secretase [1]
  IC50: 15 nM

## COc1cc(N2C[C@H]3CC[C@@H](C2)[C@@H]3Nc2nc3n(n2)CCCN3c2ccc(F)c(F)c2)ccn1
Gamma-secretase [1]
  IC50: 16 nM
[2]
  hepatocyte CLint: 3.8 µL/min/1e6 cells
hERG (KCNH2)
  IC20: > 1000 nM
[4]
  IC50: > 2000 nM
[3]
  solubility: 11 µg/mL (≈ 23.5 µM)
P-gp (ABCB1)
  efflux ratio: 1

## Cc1cc(N2C[C@H]3CC[C@@H](C2)[C@@H]3Nc2nc3n(n2)CCCN3c2ccc(F)c(F)c2)cnn1
Gamma-secretase [1]
  IC50: 23 nM
[2]
  hepatocyte CLint: 2.3 µL/min/1e6 cells
[3]
  solubility: 131 µg/mL (≈ 289 µM)
P-gp (ABCB1)
  efflux ratio: 3.3

## Fc1ccc(N2CCCCn3nc(N[C@@H]4[C@@H]5CC[C@H]4CN(c4ccnc(C(F)(F)F)c4)C5)nc32)cc1F
Gamma-secretase [1]
  IC50: 34 nM

## Cc1cc(N2C[C@H]3CC[C@@H](C2)[C@@H]3Nc2nc3n(n2)CCCN3c2ccc(F)c(F)c2)ncn1
Gamma-secretase [1]
  IC50: 25 nM
[2]
  hepatocyte CLint: 2 µL/min/1e6 cells
[3]
  solubility: 161 µg/mL (≈ 356 µM)
P-gp (ABCB1)
  efflux ratio: 3.2

## Cc1cc(N2C[C@H]3CC[C@@H](C2)[C@@H]3Nc2nc3n(n2)CCCC[C@H]3c2ccc(F)c(F)c2F)ncn1
[5]
  hepatocyte CLint: 1.4 µL/min/1e6 cells
[6]
  IC50: 2 nM
Mus musculus
  IC50: 2.5 nM
Gamma-secretase [7]
  IC50: 4 nM
[8]
  clearance: 5 mL/min/kg
[2]
  hepatocyte CLint: 4.5 µL/min/1e6 cells
hERG (KCNH2)
  IC20: 300 nM
[4]
  IC50: 1400 nM
[9]
  Drug metabolism: Not Active
[10]
  fraction unbound: 0.014
[11]
  logD: 3.8
Gamma-secretase [12]
  IC50: 2 nM
[13]
  IC50: 4 nM
[14]
  half-life: 3.4 h
Gamma-secretase [15]
  IC50: 4 nM
[16]
  bioavailability: 53%
[17]
  fraction unbound: 0.014
[18]
  fraction unbound: 0.054
P-gp (ABCB1)
  efflux ratio: 2.4
[19]
  Activity: Non-Toxic
[20]
  hepatocyte CLint: 43 µL/min/1e6 cells
P-gp
  efflux ratio: 3.3
[21]
  Vd: 1.1 L/kg

## Cc1cc(N2C[C@H]3CC[C@@H](C2)[C@@H]3Nc2nc3n(n2)CCCN3c2cc(F)cc(F)c2)ncn1
[5]
  hepatocyte CLint: 0.6 µL/min/1e6 cells
[6]
  IC50: 3 nM
Mus musculus
  IC50: 3 nM
[22]
  Vd: 1.1 L/kg
[2]
  hepatocyte CLint: 2.4 µL/min/1e6 cells
[9]
  Drug metabolism: Not Active
[10]
  fraction unbound: 0.006
[11]
  logD: 3.5
[23]
  clearance: 3.5 mL/min/kg
[3]
  solubility: 6 µg/mL (≈ 13.3 µM)
[13]
  IC50: 5 nM
[24]
  bioavailability: 82%
[25]
  half-life: 4.6 h
[17]
  fraction unbound: 0.014
[18]
  fraction unbound: 0.01
[19]
  Activity: Non-Toxic
[20]
  hepatocyte CLint: 6.4 µL/min/1e6 cells

## Cc1cc(N2C[C@H]3CC[C@@H](C2)[C@@H]3Nc2nc3n(n2)CCN3c2ccc(C(F)(F)F)cc2)ncn1
Gamma-secretase [1]
  IC50: 26 nM

## Fc1ccc(C2CCn3nc(N[C@@H]4[C@@H]5CC[C@H]4CN(c4ccnc(C(F)(F)F)c4)C5)nc32)cc1F (some centres undefined)
Gamma-secretase [1]
  IC50: 88 nM

## Cc1cc(N2C[C@H]3CC[C@@H](C2)[C@@H]3Nc2nc3n(n2)CCCCN3c2ccc(C(F)(F)F)cc2)ncn1
Gamma-secretase [1]
  IC50: 19 nM

## Cc1nnc(N2C[C@H]3CC[C@@H](C2)[C@@H]3Nc2nc3n(n2)CCCCC3c2ccc(F)c(F)c2F)o1 (mixture of isomers)
Gamma-secretase [1]
  IC50: 49 nM

## FC(F)(F)c1cccc(C2CCCCn3nc(N[C@@H]4[C@@H]5CC[C@H]4CN(c4cnnc(Cl)c4)C5)nc32)c1 (mixture of isomers)
Gamma-secretase [1]
  IC50: 31 nM

## Fc1ccc(C2CCCn3nc(N[C@@H]4[C@@H]5CC[C@H]4CN(c4cc(Cl)ncn4)C5)nc32)c(F)c1F (mixture of isomers)
Gamma-secretase [1]
  IC50: 30 nM

## COc1cc(N2C[C@H]3CC[C@@H](C2)[C@@H]3Nc2nc3n(n2)CCCCC3c2ccc(F)c(F)c2F)ccn1 (mixture of isomers)
Gamma-secretase [1]
  IC50: 14 nM
[2]
  hepatocyte CLint: 6 µL/min/1e6 cells
[3]
  solubility: 3.2 µg/mL (≈ 6.42 µM)
P-gp (ABCB1)
  efflux ratio: 1.2

## Fc1ccc(C2CCn3nc(N[C@@H]4[C@@H]5CC[C@H]4CN(c4ccnc(C(F)(F)F)c4)C5)nc32)c(F)c1F (mixture of isomers)
Gamma-secretase [1]
  IC50: 126 nM

## Fc1ccc(C2CCCCn3nc(N[C@@H]4[C@@H]5CC[C@H]4CN(c4cc(Cl)ncn4)C5)nc32)c(F)c1F (mixture of isomers)
Gamma-secretase [1]
  IC50: 14 nM
[2]
  hepatocyte CLint: 2.6 µL/min/1e6 cells
[3]
  solubility: < 0.3 µg/mL
P-gp (ABCB1)
  efflux ratio: 1.5

## COc1cc(N2C[C@H]3CC[C@@H](C2)[C@@H]3Nc2nc3n(n2)CCCCC3c2cccc(C(F)(F)F)c2)cnn1 (mixture of isomers)
Gamma-secretase [1]
  IC50: 40 nM

## Cc1cc(N2C[C@H]3CC[C@@H](C2)[C@@H]3Nc2nc3n(n2)CCCCC3c2ccc(F)c(F)c2F)ncn1 (mixture of isomers)
Gamma-secretase [1]
  IC50: 15 nM
[2]
  hepatocyte CLint: 3.1 µL/min/1e6 cells
[3]
  solubility: 0.7 µg/mL (≈ 1.45 µM)
P-gp (ABCB1)
  efflux ratio: 2.1

## Fc1ccc(C2CCCCn3nc(N[C@@H]4[C@@H]5CC[C@H]4CN(c4ccnc(C(F)(F)F)c4)C5)nc32)c(F)c1F (mixture of isomers)
Gamma-secretase [1]
  IC50: 31 nM

## Cc1nnc(N2C[C@H]3CC[C@@H](C2)[C@@H]3Nc2nc3n(n2)CCCC3c2ccc(F)c(F)c2F)o1 (mixture of isomers)
Gamma-secretase [1]
  IC50: 237 nM

## Cc1cc(N2C[C@H]3CC[C@@H](C2)[C@@H]3Nc2nc3n(n2)CCCCC3c2cccc(C(F)(F)F)c2)ncn1 (mixture of isomers)
Gamma-secretase [1]
  IC50: 19 nM
[2]
  hepatocyte CLint: 14 µL/min/1e6 cells
[3]
  solubility: 34 µg/mL (≈ 68.3 µM)
P-gp (ABCB1)
  efflux ratio: 2.2

## Cc1cc(N2C[C@H]3CC[C@@H](C2)[C@@H]3Nc2nc3n(n2)CCCCC3c2ccc(F)c(F)c2F)cnn1 (mixture of isomers)
Gamma-secretase [1]
  IC50: 30 nM
[2]
  hepatocyte CLint: 2.1 µL/min/1e6 cells
[3]
  solubility: 188 µg/mL (≈ 389 µM)
P-gp (ABCB1)
  efflux ratio: 20

## Cc1cc(N2C[C@H]3CC[C@@H](C2)[C@@H]3Nc2nc3n(n2)CCCC3c2ccc(C(F)(F)F)cc2)ncn1 (mixture of isomers)
Gamma-secretase [1]
  IC50: 25 nM

## Cc1cc(N2C[C@H]3CC[C@@H](C2)[C@@H]3Nc2nc3n(n2)CCCCC3c2ccc(F)c(F)c2F)on1 (mixture of isomers)
Gamma-secretase [1]
  IC50: 39 nM

## Cc1cc(N2C[C@H]3CC[C@@H](C2)[C@@H]3Nc2nc3n(n2)CCCCC3c2ccc(F)c(F)c2)ncn1 (mixture of isomers)
Gamma-secretase [1]
  IC50: 23 nM
[2]
  hepatocyte CLint: 6.5 µL/min/1e6 cells

## Fc1ccc(C2CCCCn3nc(N[C@@H]4[C@@H]5CC[C@H]4CN(c4cnnc(Cl)c4)C5)nc32)c(F)c1F (mixture of isomers)
Gamma-secretase [1]
  IC50: 14 nM
[2]
  hepatocyte CLint: 3.3 µL/min/1e6 cells
[3]
  solubility: 14 µg/mL (≈ 27.8 µM)
P-gp (ABCB1)
  efflux ratio: 4.3

## COc1cc(N2C[C@H]3CC[C@@H](C2)[C@@H]3Nc2nc3n(n2)CCCCC3c2ccc(F)c(F)c2F)ncn1 (mixture of isomers)
Gamma-secretase [1]
  IC50: 29 nM
hERG (KCNH2)
  IC20: 200 nM
[4]
  IC50: 550 nM

## Cc1noc(N2C[C@H]3CC[C@@H](C2)[C@@H]3Nc2nc3n(n2)CCCCC3c2ccc(F)c(F)c2F)n1 (mixture of isomers)
Gamma-secretase [1]
  IC50: 44 nM

## Fc1ccc(C2CCCn3nc(N[C@@H]4[C@@H]5CC[C@H]4CN(c4ccnc(C(F)(F)F)c4)C5)nc32)c(F)c1F (mixture of isomers)
Gamma-secretase [1]
  IC50: 44 nM

## Cc1cc(N2C[C@H]3CC[C@@H](C2)[C@@H]3Nc2nc3n(n2)CCCCC3c2ccc(C(F)(F)F)cc2)ncn1 (mixture of isomers)
Gamma-secretase [1]
  IC50: 14 nM
